Measurements reported in patent publication US5849753A, “Pyridyl imidazole derivatives and processes for the preparation thereof” (Korea Research Institute of Chemical Technology, priority 1994, dated 1998).
Values belong to the compound of their own block, whether it stands above or below them.

Experiments:
angiotensin II receptor = assay: Angiotensin II Receptor Binding Assay ([3H] angiotensin II binding inhibition); conditions: [3H] angiotensin II ligand; 60 minutes, 25° C.; test concentration not given
Experimental: In accordance with the procedure disclosed in Chiu, A. T. et al., Eur. J. Pharm., 157, 13(1981), a ligand marked with a radioisotope was reacted with an angiotensin II receptor and the reactant was filtered with a glass fiber to remove unreacted ligand. After washing the filter, the amount of the remaining isotope was measured to determine the binding activity of the ligand, as described below in detail.
Sprague-Dawley rats and Wistar rats of 250 to 350 g(from The Korea Research Institute of Chemical Technology) were tested and the test procedures were carried out at 4° C., unless otherwise specified. Adrenal gland was separated from the Sprague-Dawley rats(liver, in the case of Wistar rats) into cortex and medulla. The separated adrenal cortex and medulla were washed with a sucrose buffer solution (0.2M sucrose, 1 mM EDTA, 10 mM Tris, pH 7.2) and homogenized in the same buffer solution by using a Teflon pestle and a Brinkmann homogenizer. The homogenates were centrifuged at 3,000 Xg for 10 minutes to remove precipitates and further centrifuged at 12,000 Xg for 13 minutes. The final supernatants were centrifuged at 102,000 Xg for 1 hour to obtain precipitates, which were washed with a Tris buffer solution(50 mM Tris, 5 mM MgCl2, pH 7.2) and re-centrifuged at 102,000 Xg for 1 hour. The resulting precipitates were immediately processed at the following step or stored at -70° C.
The precipitates were suspended in a Tris buffer solution. The amount of protein was determined by using a Bio-Rad DC protein analyzing kit and the protein concentration was adjusted to the amounts of: 0.2 to 0.3 mg/ml(Sprague-Dawley rat: adrenal cortex), 1.5 to 2.0 mg/ml(Sprague-Dawleyrat: adrenal medulla), and 1.5 to 2.0 mg/ml(Wistar rat: liver). To the suspension, bovine serum albumin(BSA) was added to a concentration of 0.25 wt % and the resultant was immediately processed at the following step or stored at -70° C.
(ii) Measurement of angiotensin II receptor binding capacity 50 μl(based on ligand) of [^3 H] angiotensin II(NEN, NET-446) and 10 μl of each of the test compounds with various concentrations were added to the buffer solution(50 mM Irris(pH 7.2), 5 mM MgCl2, 0.25% BSA) to adjust the final volume to be 0.5 ml. 100 μl of the receptor suspension was added thereto and the resulting solution was reacted for 60 minutes while stirring in a water bath at 25° C. 3 ml of cold buffer solution for analysis was added to cease the reaction. The isotope which was bound to the receptor was isolated from the resultant by using Brandel Cell Harvester System with Whatman glass fiber GF/C. After washing the filter, the radioactivity of the filter was determined by using a liquid scintillation counter. Binding inhibition(%) of the test compound was calculated as follows:
Binding Inhibition(%)=[{(T--B)-(S--B)}/(T--B)]×100
wherein T is cpm of the reaction product untreated with the test compound, S is cpm of the reaction product treated with the test compound, and B is cpm of blank test.

renal hypertensive rat [1] = assay: Blood pressure lowering effect on oral administration to rats at several doses; type: in vivo, male Sprague-Dawley rats
Description: (§1) To induce renal hypertension, left renal artery of 4 week-old male Sprague-Dawley rats(from The Korea Research Institute of Chemical Technology) was ligated. The rats were anesthetized with ether and the surgical region on the left abdomen of the rat was shaved, disinfected, and then incised about 1 cm vertically. The renal artery near abdominal aorta was isolated carefully from surrounding tissues and veins, and then ligated completely with a suture(4/0 sterile surgical silk). The muscular strata and skin of the surgical area were sutured with a suture(4/0 sterile surgical silk). The surgical region was disinfected to prevent infection and thereafter, 200 to 250 mg/Kg/day of cephazolin sodium was injected intramuscularly for 2 days. 6 to 8 days after the ligation, rats showing systolic pressure of more than 180 mmHg were selected for renal hypertension test. The blood pressure was determined by a tail-cuff method from the tail under unanesthetized condition(Gerold, M. et al., Arzneimittrel-Forsch, 18, 1285(1968)).
(§2) Each of the compounds to be tested was administered intravenously or orally into the renal hypertensive rat. The blood pressure of the rats was determined by direct method(Chiu, A. T. et al., J. Pharmacol. Exp. Ther. 250, 867(1989)) using a catheter. The rats were anesthetized with ketamine hydrochloride(125 mg/kg, i.p.) and a catheter was filled with saline and inserted into a carotid artery and carotid vein. The surgical area was sutured with a metal clip. The rats were relaxed at least 3 hours and the catheter in the carotid artery was adapted to an isotec pressure transducer to determine their blood pressure and heart rate with a physiograph(Linearcorder WR3310). After the blood pressure was stabilized, the test compound was administered intravenously or orally. For intravenous administration, the administered volume and washing volume were 1.0 ml/Kg and 0.2 ml, respectively. The blood pressure and heart rate were measured in regular intervals up to 24 hours after the administration of the test compound and compared with those measured after the administration of the control compound Losartan.
(§3) The test compound was dissolved in 0.05N KOH for intravenous administration and suspended in Tween 80 for oral administration.
(iii) Blood pressure lowering effect The present compounds, Losartan(Dup 753) and the Merck compound were administrated orally to rats in 10, 3, 1, 0.3 and 0.1 mg/kg under the same condition as in (ii) and the blood pressure lowering effect was determined.

unanesthetized dogs = assay: Blood pressure lowering effect in unanesthetized dogs (furosemide treated); type: in vivo, dog; design: Maximum blood pressure lowering effect in a dog: unit not given here; conditions: oral; for Blood pressure variation with time: 3 mg
Experimental: A number of dogs were fed freely in a feeding room and those weighing 7 to 12 kg in good health were selected regardless of their gender.
The test dogs were anesthetized with 30 mg/kg of pentobarbital sodium by intravenous injection and the left femoral artery and femoral vein were separated carefully. Silicone catheter, specially prepared and filled with saline treated with heparin(1,000 IU/ml), was cannulated into the blood vessels. After the surgery, the dogs were constrained to measure their blood pressure continuously with Gould 2000 physiograph adapted to a Grass P23 XL pressure transducer; and their heart rates were monitored with ECG/Biotacho amplifier. The dogs were tested at least 2 days after the surgery.
10 mg/kg of furosemide was injected intramuscularly 18 hours(in case of intravenous injection, 2 hours) before the beginning of the test (administration of the test compound) to improve the activity of renin in blood plasma. After the injection of furosemide, neither food nor water was provided. The test compound was suspended in Tween 80 and administered in an amount of 20 mg/kg orally. The blood pressure and heart rate were measured up to 8 hours after the administration of each test compound.
The maximum blood pressure lowering effect of the present compounds and the control compounds were determined in different amounts of administration using the same method as […]

renal hypertensive rat [2] = assay: Blood pressure lowering effect in renal hypertension (renal hypertensive rats, intravenous or oral); type: in vivo, male Sprague-Dawley rats; conditions: 3 mg, read-out: Maxium Blood Pressure Lowering Effect(%)
Description: as §1, §2, §3

SMILES: CCCCc1nc2cc(CCC(=O)OCC)c(C(OC)OC)nc2n1Cc1ccc(-c2ccccc2-c2nn[nH]n2)cc1 [Example 13, 2-butyl-5-dimethoxymethyl-6-[2-(ethoxycarbonyl)-ethyl-1-yl]-3-[2'-(1H-tetrazol-5-yl)-biphenyl-4-ylmethyl]-3H-imidazo[4,5-b]pyridine]
Binding Inhibition(%) (angiotensin II receptor): 95.0%
change in vivo at 3 mg (renal hypertensive rat [2]): -32%

SMILES: CCCCc1nc2cc(-c3ccc(OC)cc3)c(C(OC)OC)nc2n1Cc1ccc(-c2ccccc2-c2nn[nH]n2)cc1 [Example 6, 2-butyl-5-dimethoxymethyl-6-(4-methoxyphenyl-1-yl)-3-[2'-(1H-tetrazol-5-yl)-biphenyl-4-ylmethyl]-3H-imidazo[4,5-b]pyridine]
Binding Inhibition(%) (angiotensin II receptor): 49.0%
change in vivo at 3 mg (renal hypertensive rat [2]): -25%

SMILES: CCCCc1nc(Cl)c(CO)n1Cc1ccc(-c2ccccc2-c2nn[nH]n2)cc1 [Losartan(Dup 753), Losartan, reference compound]
Binding Inhibition(%) (angiotensin II receptor): 48.0%
blood pressure lowering effect (renal hypertensive rat [1]; 3 mg/kg): 30%
blood pressure lowering effect (renal hypertensive rat [1]; 10 mg/kg): 46%
Maximum blood pressure lowering effect in a dog (unanesthetized dogs; 3 mg/kg): 13
Maximum blood pressure lowering effect in a dog (unanesthetized dogs; 10 mg/kg): 23
Blood pressure variation with time (unanesthetized dogs; dogs, 0.5 hr): -11.0%
Blood pressure variation with time (unanesthetized dogs; dogs, 1 hr): -12.3%
Blood pressure variation with time (unanesthetized dogs; dogs, 2 hr): -12.8%
Blood pressure variation with time (unanesthetized dogs; dogs, 4 hr): -9.9%
Blood pressure variation with time (unanesthetized dogs; dogs, 6 hr): -10.1%
Blood pressure variation with time (unanesthetized dogs; dogs, 8 hr): -8.2%
maximum blood pressure lowering effect lasted up to (after the administration) (unanesthetized dogs; dogs, as shown in Table 3): up to 2 hours
change in vivo at 3 mg (renal hypertensive rat [2]): -30%

SMILES: CCCCc1nc2cc(-c3ccccc3OC)c(C(OC)OC)nc2n1Cc1ccc(-c2ccccc2-c2nn[nH]n2)cc1 [Example 20, 2-butyl-5-dimethoxymethyl-6-(2-methoxyphenyl-1-yl)-3-[2'-(1H-tetrazol-5-yl)-biphenyl-4-ylmethyl]-3H-imidazo[4,5-b]pyridine]
Binding Inhibition(%) (angiotensin II receptor): 81.9%
change in vivo at 3 mg (renal hypertensive rat [2]): -25%

Further lines, with some results ahead:

Binding Inhibition(%) (angiotensin II receptor): 77.8%
SMILES: CCCCc1nc2cc(-c3ccccc3)c(C(OC)OC)nc2n1Cc1ccc(-c2ccccc2-c2nnn[nH]2)cc1 [Example 1, 2-butyl-5-dimethoxymethyl-6-phenyl-3-[2'-(1H-tetrazol-5-yl)biphenyl-4-ylmethyl]-3H-imidazo[4,5-b]pyridine]
blood pressure lowering effect (renal hypertensive rat [1]; 1 mg/kg): 25%
blood pressure lowering effect (renal hypertensive rat [1]; 3 mg/kg): 38%
Maximum blood pressure lowering effect in a dog (unanesthetized dogs; 1 mg/kg): 15
Maximum blood pressure lowering effect in a dog (unanesthetized dogs; 3 mg/kg): 35
Maximum blood pressure lowering effect in a dog (unanesthetized dogs; 10 mg/kg): 41
Blood pressure variation with time (unanesthetized dogs; dogs, 0.5 hr): -31.3%
Blood pressure variation with time (unanesthetized dogs; dogs, 1 hr): -32.6%
Blood pressure variation with time (unanesthetized dogs; dogs, 2 hr): -34.0%
Blood pressure variation with time (unanesthetized dogs; dogs, 4 hr): -33.0%
Blood pressure variation with time (unanesthetized dogs; dogs, 6 hr): -30.1%
Blood pressure variation with time (unanesthetized dogs; dogs, 8 hr): -25.9%
change in vivo at 3 mg (renal hypertensive rat [2]): -40%

Binding Inhibition(%) (angiotensin II receptor): 94.8%
SMILES: CCCCc1nc2cc(-c3cccnc3)c(C(OC)OC)nc2n1Cc1ccc(-c2ccccc2-c2nnn[nH]2)cc1 [Example 22, 2-butyl-5-dimethoxymethyl-6-(pyridin-3-yl)-3-[2'-(1H-tetrazol-5-yl)-biphenyl-4-ylmethyl]-3H-imidazo[4,5-b]pyridine]
change in vivo at 3 mg (renal hypertensive rat [2]): -38%

Binding Inhibition(%) (angiotensin II receptor): 92.9%
SMILES: CCCCc1nc2cc(-c3ccncc3)c(C(OC)OC)nc2n1Cc1ccc(-c2ccccc2-c2nnn[nH]2)cc1 [Example 23, 2-butyl-5-dimethoxymethyl-6-(pyridin-4-yl)-3-[2'-(1H-tetrazol-5-yl)-biphenyl-4-ylmethyl]-3H-imidazo[4,5-b]pyridine]
change in vivo at 3 mg (renal hypertensive rat [2]): -33%

Binding Inhibition(%) (angiotensin II receptor): 94.9%
SMILES: CCCCc1nc2cc(-c3ccc[n+]([O-])c3)c(C(OC)OC)nc2n1Cc1ccc(-c2ccccc2-c2nn[nH]n2)cc1 [Example 24, 2-butyl-5-dimethoxymethyl-6-(1-oxy-pyridin-3-yl)-3-[2'-(1H-tetrazol-5-yl)-biphenyl-4-ylmethyl]-3H-imidazo[4,5-b]pyridine]
change in vivo at 3 mg (renal hypertensive rat [2]): -18%
